PubChem BioAssay AID2060513 (Molecular Pharmacology Branch, DTP, NCI, 2025)

Tested on: 299254-011-R-J1-PDC complex spheroids viability
Experiment: Anticancer human tumor 299254-011-R-J1-PDC patient-derived melanoma cell line growth inhibition [GQUAD]
Conditions: for IC50: curve of first compound; for viability, T/C: stronger effect = lower value; active = viability on the fitted dose curve at most 10% of control; inactive = the rest
Method in brief: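 Multi-cell-type spheroids of tumor cells with HUVEC and mesenchymal stem cells, treated with drug combinations. Concentrations descend in half-log steps from near clinical Cmax, or from 10 microM where Cmax is unknown; viability read-out.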

[1] = second compound 0.0316 µM, first compound 0.0316 µM
[2] = second compound 0.0316 µM, first compound 0.316 µM
[3] = second compound 0.1 µM, first compound 0.0316 µM
[4] = second compound 0.1 µM, first compound 0.316 µM
[5] = second compound 0.316 µM, first compound 0.0316 µM
[6] = second compound 0.316 µM, first compound 0.316 µM
[7] = second compound 1 µM, first compound 0.0316 µM
[8] = second compound 1 µM, first compound 0.316 µM
[9] = second compound 3.16 µM, first compound 0.0316 µM
[10] = second compound 3.16 µM, first compound 0.316 µM
[11] = second compound 10 µM, first compound 0.0316 µM
[12] = second compound 10 µM, first compound 0.316 µM
[13] = second compound 0.0316 µM, first compound 0.1 µM
[14] = second compound 0.0316 µM, first compound 1 µM
[15] = second compound 0.0316 µM, first compound 3.16 µM
[16] = second compound 0.0316 µM, first compound 10 µM
[17] = second compound 0.1 µM, first compound 0.1 µM
[18] = second compound 0.1 µM, first compound 1 µM
[19] = second compound 0.1 µM, first compound 3.16 µM
[20] = second compound 0.1 µM, first compound 10 µM
[21] = second compound 0.316 µM, first compound 0.1 µM
[22] = second compound 0.316 µM, first compound 1 µM
[23] = second compound 0.316 µM, first compound 3.16 µM
[24] = second compound 0.316 µM, first compound 10 µM
[25] = second compound 1 µM, first compound 0.1 µM
[26] = second compound 1 µM, first compound 1 µM
[27] = second compound 1 µM, first compound 3.16 µM
[28] = second compound 1 µM, first compound 10 µM
[29] = second compound 3.16 µM, first compound 0.1 µM
[30] = second compound 3.16 µM, first compound 1 µM
[31] = second compound 3.16 µM, first compound 3.16 µM
[32] = second compound 3.16 µM, first compound 10 µM
[33] = second compound 10 µM, first compound 0.1 µM
[34] = second compound 10 µM, first compound 1 µM
[35] = second compound 10 µM, first compound 3.16 µM
[36] = second compound 10 µM, first compound 10 µM
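Also: spheroids exposed to the agents for seven days before readout.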
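For viability, T/C in this document: percent viability relative to DMSO vehicle control wells = 100%.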

Cc1[nH]c2ccccc2c1CCNCc1ccc(/C=C/C(=O)NO)cc1 + CN(C)c1ccc(Nc2c3ccc(NC(=O)CCN4CCCC4)cc3nc3cc(NC(=O)CCN4CCCC4)ccc23)cc1
171 nM: IC50 (second compound 0.316 µM)
161 nM: IC50 (second compound 0.0316 µM)
188 nM: IC50 (second compound 1 µM)
138 nM: IC50 (second compound 0.1 µM)
134 nM: IC50 (second compound 10 µM)
151 nM: IC50 (second compound 3.16 µM)
inactive: viability, T/C (second compound 0.0316 µM, first compound 0.000999 µM) 96.8% | viability, T/C (second compound 0.0316 µM, first compound 0.00316 µM) 81.8% | viability, T/C (second compound 0.0316 µM, first compound 0.00999 µM) 89.2% | viability, T/C [1] 82.9% | viability, T/C (second compound 0.0316 µM, first compound 0.0999 µM) 74.8% | viability, T/C [2] 16.3% | viability, T/C (second compound 0.1 µM, first compound 0.000999 µM) 86% | viability, T/C (second compound 0.1 µM, first compound 0.00316 µM) 102% | viability, T/C (second compound 0.1 µM, first compound 0.00999 µM) 86.8% | viability, T/C [3] 90.3% | viability, T/C (second compound 0.1 µM, first compound 0.0999 µM) 63.7% | viability, T/C [4] 15% | viability, T/C (second compound 0.316 µM, first compound 0.000999 µM) 95.3% | viability, T/C (second compound 0.316 µM, first compound 0.00316 µM) 88.5% | viability, T/C (second compound 0.316 µM, first compound 0.00999 µM) 87% | viability, T/C [5] 97.3% | viability, T/C (second compound 0.316 µM, first compound 0.0999 µM) 77% | viability, T/C [6] 19.3% | viability, T/C (second compound 1 µM, first compound 0.000999 µM) 101% | viability, T/C (second compound 1 µM, first compound 0.00316 µM) 110% | viability, T/C (second compound 1 µM, first compound 0.00999 µM) 73.4% | viability, T/C [7] 92.4% | viability, T/C (second compound 1 µM, first compound 0.0999 µM) 87.8% | viability, T/C [8] 18.7% | viability, T/C (second compound 3.16 µM, first compound 0.000999 µM) 111% | viability, T/C (second compound 3.16 µM, first compound 0.00316 µM) 110% | viability, T/C (second compound 3.16 µM, first compound 0.00999 µM) 86.6% | viability, T/C [9] 107% | viability, T/C (second compound 3.16 µM, first compound 0.0999 µM) 68.9% | viability, T/C [10] 16.2% | viability, T/C (second compound 10 µM, first compound 0.000999 µM) 103% | viability, T/C (second compound 10 µM, first compound 0.00316 µM) 121% | viability, T/C (second compound 10 µM, first compound 0.00999 µM) 98.8% | viability, T/C [11] 95.7% | viability, T/C (second compound 10 µM, first compound 0.0999 µM) 61.7% | viability, T/C [12] 14.7%

Nc1ccn(C2OC(CO)C(O)C2(F)F)c(=O)n1 (stereo not drawn) + Cc1cnc(CNC(=O)c2c(=O)c3ccc(N4CCCN(C)CC4)nc3n3c2sc2ccccc23)cn1
< 31.6 nM: IC50 (second compound 10 µM)
> 10000 nM: IC50 (second compound 0.0316 µM) | IC50 (second compound 0.316 µM)
835 nM: IC50 (second compound 3.16 µM)
282 nM: IC50 (second compound 0.1 µM)
inactive: viability, T/C [1] 102% | viability, T/C [13] 76.5% | viability, T/C [2] 64.3% | viability, T/C [14] 44.7% | viability, T/C [15] 56.7% | viability, T/C [16] 68% | viability, T/C [3] 90.4% | viability, T/C [17] 72% | viability, T/C [4] 45.6% | viability, T/C [18] 48% | viability, T/C [19] 50.1% | viability, T/C [20] 46.7% | viability, T/C [5] 80.5% | viability, T/C [21] 78.8% | viability, T/C [6] 69% | viability, T/C [22] 56.1% | viability, T/C [23] 54.3% | viability, T/C [24] 70.3% | viability, T/C [7] 85.6% | viability, T/C [25] 87% | viability, T/C [8] 48.7% | viability, T/C [26] 44.5% | viability, T/C [27] 60.5% | viability, T/C [28] 58.8% | viability, T/C [9] 79.3% | viability, T/C [29] 69.3% | viability, T/C [10] 64.6% | viability, T/C [30] 42.9% | viability, T/C [31] 54.4% | viability, T/C [32] 44.6% | viability, T/C [11] 50% | viability, T/C [33] 24.9% | viability, T/C [12] 47.8% | viability, T/C [34] 49.9% | viability, T/C [35] 48.3% | viability, T/C [36] 0.4%
1000 nM: IC50 (second compound 1 µM)

Cc1cccc(N(C)C(=O)C2C(O)CCN2c2nc(C)cc(C(F)(F)F)c2C#N)c1 (stereo not drawn) + CN(C)c1ccc(Nc2c3ccc(NC(=O)CCN4CCCC4)cc3nc3cc(NC(=O)CCN4CCCC4)ccc23)cc1
> 10000 nM: IC50 (second compound 0.0316 µM) | IC50 (second compound 0.1 µM) | IC50 (second compound 0.316 µM) | IC50 (second compound 1 µM) | IC50 (second compound 3.16 µM) | IC50 (second compound 10 µM)
inactive: viability, T/C [1] 118% | viability, T/C [13] 96.8% | viability, T/C [2] 84.9% | viability, T/C [14] 80.5% | viability, T/C [15] 99.2% | viability, T/C [16] 86% | viability, T/C [3] 116% | viability, T/C [17] 84.9% | viability, T/C [4] 89.2% | viability, T/C [18] 83.4% | viability, T/C [19] 90.4% | viability, T/C [20] 81.5% | viability, T/C [5] 103% | viability, T/C [21] 100% | viability, T/C [6] 90.5% | viability, T/C [22] 103% | viability, T/C [23] 95.6% | viability, T/C [24] 103% | viability, T/C [7] 94.9% | viability, T/C [25] 105% | viability, T/C [8] 99.5% | viability, T/C [26] 100% | viability, T/C [27] 105% | viability, T/C [28] 81.3% | viability, T/C [9] 108% | viability, T/C [29] 99.6% | viability, T/C [10] 98.6% | viability, T/C [30] 108% | viability, T/C [31] 84.1% | viability, T/C [32] 80.4% | viability, T/C [11] 102% | viability, T/C [33] 79.4% | viability, T/C [12] 98.7% | viability, T/C [34] 110% | viability, T/C [35] 77.4% | viability, T/C [36] 67.6%

COc1ncnc(C2CC2)c1-c1ncc2cnn(Cc3ccc(-c4nc(C(F)(F)F)cn4C(C)C)cc3)c2n1 + Cc1cnc(CNC(=O)c2c(=O)c3ccc(N4CCCN(C)CC4)nc3n3c2sc2ccccc23)cn1
inactive: viability, T/C [1] 92.3% | viability, T/C [13] 98.2% | viability, T/C [2] 84.8% | viability, T/C [14] 88.6% | viability, T/C [15] 110% | viability, T/C [16] 126% | viability, T/C [3] 113% | viability, T/C [17] 97.9% | viability, T/C [4] 81.5% | viability, T/C [18] 97.8% | viability, T/C [19] 91.9% | viability, T/C [20] 108% | viability, T/C [5] 87.3% | viability, T/C [21] 88.9% | viability, T/C [6] 120% | viability, T/C [22] 101% | viability, T/C [23] 93.2% | viability, T/C [24] 97.8% | viability, T/C [7] 68.7% | viability, T/C [25] 102% | viability, T/C [8] 90.1% | viability, T/C [26] 88.1% | viability, T/C [27] 102% | viability, T/C [28] 76.8% | viability, T/C [9] 87.4% | viability, T/C [29] 69.8% | viability, T/C [10] 76.4% | viability, T/C [30] 70.9% | viability, T/C [31] 77.3% | viability, T/C [32] 79% | viability, T/C [11] 38.5% | viability, T/C [33] 24.7% | viability, T/C [12] 68% | viability, T/C [34] 77.7% | viability, T/C [35] 63.6%
> 10000 nM: IC50 (second compound 0.0316 µM) | IC50 (second compound 0.1 µM) | IC50 (second compound 0.316 µM) | IC50 (second compound 1 µM) | IC50 (second compound 3.16 µM)
active: viability, T/C [36] 0.43%
3440 nM: IC50 (second compound 10 µM)
